#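 Interpolation was linear, between the two tested concentrations surrounding the appropriate level; five concentrations were tested over 48 hours in 96-well plates. The concentration for 50% growth inhibition is given as GI50.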 Calls of active or inactive are those of the source. Rule as the data show it: active = GI50 up to about 1.1 µM and inactive = higher.
# Experiments:
# Test in all cases: DTP human tumour cell line panel, 48 h
# [1] = system: CAKI-1
# [2] = system: CCRF-CEM
# [3] = system: EKVX
# [4] = system: HCC 2998
# [5] = system: HCT-116
# [6] = system: HOP-92
# [7] = system: K562
# [8] = system: M14
# [9] = system: MDA-N
# [10] = system: MOLT-4
# [11] = system: NCI-H23
# [12] = system: NCI-H522
# [13] = system: OVCAR-3
# [14] = system: OVCAR-8
# [15] = system: SF-268
# [16] = system: SK-MEL-2
# [17] = system: U-251
# [18] = system: UACC-257
# [19] = system: UO-31
# [20] = system: DU-145
Compound,GI50 [1],GI50 [2],GI50 [3],GI50 [4],GI50 [5],GI50 [6],GI50 [7],GI50 [8],GI50 [9],GI50 [10],GI50 [11],GI50 [12],GI50 [13],GI50 [14],GI50 [15],GI50 [16],GI50 [17],GI50 [18],GI50 [19],GI50 [20]
C/C(=N\Nc1nc2ccccc2[nH]1)c1cnccn1,0.447 µM (active),0.31 µM (active),0.491 µM (active),19.6 µM (inactive),0.379 µM (active),0.385 µM (active),1.23 µM (inactive),0.614 µM (active),1.9 µM (inactive),0.232 µM (active),1.71 µM (inactive),0.169 µM (active),0.296 µM (active),0.8 µM (active),0.53 µM (active),1.45 µM (inactive),0.628 µM (active),2.94 µM (inactive),0.548 µM (active),–
CCCCCCNC(=O)c1cc(C#Cc2cc(OC)ccc2OC)ccc1OC,> 100 µM (inactive),–,58.9 µM (inactive),1.93 µM (inactive),–,9.77 µM (inactive),3.92 µM (inactive),17.5 µM (inactive),3.22 µM (inactive),4.84 µM (inactive),47.4 µM (inactive),6.15 µM (inactive),–,> 100 µM (inactive),> 100 µM (inactive),> 100 µM (inactive),> 100 µM (inactive),> 100 µM (inactive),62.1 µM (inactive),–
CCC/N=C1\S/C(=C/c2ccc(OC)c(OC)c2)C(=O)N1c1ccccc1,44.5 µM (inactive),58.7 µM (inactive),15.8 µM (inactive),> 100 µM (inactive),24 µM (inactive),33.1 µM (inactive),> 100 µM (inactive),> 100 µM (inactive),> 100 µM (inactive),33.9 µM (inactive),76.7 µM (inactive),40.6 µM (inactive),12.6 µM (inactive),82.2 µM (inactive),15.1 µM (inactive),31.8 µM (inactive),12.6 µM (inactive),76.7 µM (inactive),32.5 µM (inactive),–
Oc1cn(-c2ccc(Cl)cc2)nc1-c1n[nH]c(=S)n1-c1ccccc1,8.09 µM (inactive),–,27.2 µM (inactive),–,6.37 µM (inactive),> 100 µM (inactive),3.95 µM (inactive),7 µM (inactive),–,62.7 µM (inactive),10.5 µM (inactive),5.01 µM (inactive),2.51 µM (inactive),14.9 µM (inactive),10.4 µM (inactive),22.4 µM (inactive),10.8 µM (inactive),20.7 µM (inactive),14.2 µM (inactive),22.3 µM (inactive)
CC(O[Si](c1ccccc1)(c1ccccc1)C(C)(C)C)[C@H](NC(=O)OC(C)(C)C)C(=O)O[Si](c1ccccc1)(c1ccccc1)C(C)(C)C (stereo not given in full),12.4 µM (inactive),20 µM (inactive),11.9 µM (inactive),15.9 µM (inactive),11.2 µM (inactive),10.9 µM (inactive),13.2 µM (inactive),15.7 µM (inactive),18.8 µM (inactive),10.6 µM (inactive),11.7 µM (inactive),–,–,15.6 µM (inactive),14.3 µM (inactive),–,14.4 µM (inactive),14.9 µM (inactive),13.2 µM (inactive),12.6 µM (inactive)
O=C(/C=C(\N=P(c1ccccc1)(c1ccccc1)c1ccccc1)C(F)(F)C(F)(F)C(F)(F)C(F)(F)C(F)(F)C(F)(F)C(F)(F)F)c1ccccc1,> 100 µM (inactive),> 100 µM (inactive),–,> 100 µM (inactive),> 100 µM (inactive),> 100 µM (inactive),> 100 µM (inactive),> 100 µM (inactive),> 100 µM (inactive),> 100 µM (inactive),> 100 µM (inactive),–,> 100 µM (inactive),–,> 100 µM (inactive),> 100 µM (inactive),> 100 µM (inactive),> 100 µM (inactive),> 100 µM (inactive),> 100 µM (inactive)
COCN1C(=O)[C@@H]2C[C@@H](OC/C=C/CBr)CN2C(=O)c2ccccc21,17.4 µM (inactive),5.77 µM (inactive),23 µM (inactive),–,13.2 µM (inactive),–,–,16.1 µM (inactive),15.8 µM (inactive),17.7 µM (inactive),23.2 µM (inactive),5.68 µM (inactive),–,14.5 µM (inactive),25.1 µM (inactive),29.7 µM (inactive),14.5 µM (inactive),16.5 µM (inactive),18.9 µM (inactive),19.4 µM (inactive)
Nc1ccn([C@H]2CO[C@@H](CO)[C@@H]2O)c(=O)n1,> 100 µM (inactive),> 100 µM (inactive),> 100 µM (inactive),> 100 µM (inactive),> 100 µM (inactive),> 100 µM (inactive),> 100 µM (inactive),–,> 100 µM (inactive),> 100 µM (inactive),> 100 µM (inactive),–,> 100 µM (inactive),–,> 100 µM (inactive),> 100 µM (inactive),> 100 µM (inactive),> 100 µM (inactive),> 100 µM (inactive),> 100 µM (inactive)
CN(C)c1ccc(/C=C2\Oc3cc(O)ccc3C2=O)cc1,> 100 µM (inactive),69.5 µM (inactive),> 100 µM (inactive),> 100 µM (inactive),> 100 µM (inactive),–,37.8 µM (inactive),75.7 µM (inactive),–,60.8 µM (inactive),> 100 µM (inactive),28.1 µM (inactive),38.7 µM (inactive),> 100 µM (inactive),> 100 µM (inactive),–,57 µM (inactive),> 100 µM (inactive),> 100 µM (inactive),> 100 µM (inactive)
COC(=O)c1c2c(cc3c1CC1(Cc4cc5c(c(C=O)c4C1)CCCC5)C3)CCCC2 (stereo not given),–,–,52.4 µM (inactive),39 µM (inactive),23.3 µM (inactive),56.6 µM (inactive),33.2 µM (inactive),> 100 µM (inactive),89.3 µM (inactive),55.1 µM (inactive),57.9 µM (inactive),32.1 µM (inactive),29.9 µM (inactive),87.5 µM (inactive),–,10.2 µM (inactive),43.8 µM (inactive),50.5 µM (inactive),0.103 µM (active),–
CCCCCCCCCOC(=O)c1cnc(Cl)cn1,16.9 µM (inactive),39.9 µM (inactive),22.3 µM (inactive),–,17.7 µM (inactive),42.4 µM (inactive),36.8 µM (inactive),18.4 µM (inactive),–,52.7 µM (inactive),18.2 µM (inactive),19 µM (inactive),–,33.4 µM (inactive),21.2 µM (inactive),22.1 µM (inactive),19.7 µM (inactive),23.6 µM (inactive),18.5 µM (inactive),19.6 µM (inactive)
COc1cccc2c1C(=O)c1c(O)c3c(c(O)c1C2=O)CC(O)(C(C)=O)CC3OC1OC(COC(C)=O)C(OC(C)=O)C(OC(C)=O)C1OC(C)=O (stereo not given),–,0.0276 µM (active),0.116 µM (active),–,55.8 µM (inactive),0.515 µM (active),18.5 µM (inactive),43.8 µM (inactive),–,12.8 µM (inactive),–,> 100 µM (inactive),14 µM (inactive),11.5 µM (inactive),11.4 µM (inactive),55.7 µM (inactive),12.9 µM (inactive),< 0.01 µM (active),> 100 µM (inactive),26.9 µM (inactive)
Cc1nc2ccc(NC(=S)Nc3ccccc3)cc2c(=O)n1-c1ccccc1,> 100 µM (inactive),–,> 100 µM (inactive),66.4 µM (inactive),> 100 µM (inactive),–,46.3 µM (inactive),–,> 100 µM (inactive),48.9 µM (inactive),> 100 µM (inactive),> 100 µM (inactive),> 100 µM (inactive),> 100 µM (inactive),> 100 µM (inactive),16.6 µM (inactive),57.7 µM (inactive),> 100 µM (inactive),> 100 µM (inactive),> 100 µM (inactive)
CC1(C)OCC(COC(=O)NCn2cc(-c3ccccc3)nn2)O1 (stereo not given),> 100 µM (inactive),> 100 µM (inactive),> 100 µM (inactive),26.2 µM (inactive),> 100 µM (inactive),> 100 µM (inactive),> 100 µM (inactive),> 100 µM (inactive),–,> 100 µM (inactive),> 100 µM (inactive),> 100 µM (inactive),–,> 100 µM (inactive),> 100 µM (inactive),> 100 µM (inactive),> 100 µM (inactive),> 100 µM (inactive),–,> 100 µM (inactive)
CCOC(=O)c1nnsc1NC(=O)NCCCCCCn1c(=O)n(CCCCCCNC(=O)Nc2snnc2C(=O)OCC)c(=O)n(CCCCCCNC(=O)Nc2snnc2C(=O)OCC)c1=O,76.9 µM (inactive),38.5 µM (inactive),60.4 µM (inactive),39.5 µM (inactive),38.8 µM (inactive),–,66.4 µM (inactive),> 100 µM (inactive),36.8 µM (inactive),31.1 µM (inactive),24.9 µM (inactive),–,57.8 µM (inactive),35.8 µM (inactive),19.8 µM (inactive),> 100 µM (inactive),19.3 µM (inactive),85.3 µM (inactive),45.4 µM (inactive),49.3 µM (inactive)
O=C(O)c1ccccc1/C=C1\Cc2ccccc2C1=O,> 100 µM (inactive),> 100 µM (inactive),> 100 µM (inactive),> 100 µM (inactive),> 100 µM (inactive),–,> 100 µM (inactive),> 100 µM (inactive),> 100 µM (inactive),> 100 µM (inactive),> 100 µM (inactive),> 100 µM (inactive),> 100 µM (inactive),> 100 µM (inactive),> 100 µM (inactive),67.1 µM (inactive),> 100 µM (inactive),> 100 µM (inactive),> 100 µM (inactive),> 100 µM (inactive)
